PubChem BioAssay AID2060495 (Molecular Pharmacology Branch, DTP, NCI, 2025)

Tested on: 521955-158-R2-J5-PDC complex spheroid viability
Test: Anticancer human tumor 521955-158-R2-J5-PDC patient-derived pancreatic carcinoma cell line growth inhibition [GQUAD]
Details: for IC50: curve of first compound; for viability, T/C: stronger effect = lower value
Source text: DNA G-quadruplex Stabilizer Agents in Combinations in Complex Spheroids
A high-throughput screen of multi-cell type tumor spheroids was designed to identify active combinations of DNA G-quadruplex stabilizer agents and targeted small molecules. Complex spheroids include a stromal component modeled by human endothelial cells (HUVEC) and fibroblasts modeled by human mesenchymal stem cells (MSCs). The concentration ranges selected for each drug and investigational agent were based upon clinically achievable concentrations if the clinical Cmax of the agent was known.
Compounds. The drugs and investigational agents: pidnarulex (CX-5461; NSC782164), APTO-253 (NSC789042), BRACO-19 (NSC847499), peposertib (NSC802822), ceralasertib (NSC780249), elimusertib (NSC800525), camonsertib (NSC841442), AZD-1390 (NSC803789), olaparib (NSC753686), talazoparib (NSC767125), ART-558 (NSC835418), sotorasib (NSC818433), MRTX-1133 (NSC836407), SN-38 (NSC673596), topotecan (NSC609699), etoposide (NSC141540), doxorubicin (NSC123127), gemcitabine (NSC613327), 5-fluorouracil (NSC19893), paclitaxel (NSC125973), vemurafenib (NSC761431), panobinostat (NSC761190), R-306465 (JNJ-16241199; NSC773264), adavosertib (NSC754352), TP-3654 (NSC805149), carboplatin (NSC241240), KSQ-4279 (NSC840948), and staurosporine (NSC755774) were obtained from the National Cancer Institute (NCI) Developmental Therapeutics Program Chemical Repository (34). The FDA-approved anticancer drug set is available from the NCI Developmental Therapeutics Program. […] The stock solutions were prepared in dimethyl sulfoxide (DMSO, Sigma-Aldrich, St. Louis, MO, cat. D2650) at 800-fold the tested concentration and stored at -70 degrees C prior to their use. All drugs and investigational agents were tested over a range starting from a high concentration at or near the clinical Cmax and decreasing in half-log increments. If the clinical Cmax for an agent had not been determined, the highest concentration tested was 10 microM.
2.3 Cell Culture. All cells were maintained in an incubator at 37 degrees C and 5% CO2 with 95% humidity. The PDC lines were cultured according to standard operating procedures established by the NCI PDMR. All PDCs were thawed and cultured in Matrigel-coated flasks prepared with a working solution of 1X Ham's F-12 nutrient mix, without supplementation (Invitrogen, cat. 11765054), 100 U/mL penicillin-streptomycin (Invitrogen, cat. 15140122), and 2.5% Matrigel (Corning Inc., cat. 354248) for the first three passages. The 857933-349-R-J2-PDC line was cultured in 6C/Colon 1B media, which includes advanced DMEM/F-12 (Thermo Fisher Scientific, cat. 12634028), 10 mM HEPES (Thermo Fisher Scientific, cat. 15630080), 1X GlutaMAX supplement (Thermo Fisher Scientific, cat. 35050061), 0.1 mg/mL primocin (InvivoGen, cat. ant-pm-2), 10% defined fetal bovine serum, heat inactivated (HyClone Laboratories Inc., cat. SH30070.03HI), 50% L-WRN conditioned media (ATCC, cat. CRL-3276), 1.25 mM N-Acetyl-L-cysteine (Sigma-Aldrich, cat. A9165), 10 mM nicotinamide (Sigma-Aldrich, cat. N0636), 1X B-27 supplement (Thermo Fisher Scientific, cat. 17504044), 1X N-2 supplement (Thermo Fisher Scientific, cat. 17502048), 10 microM Y-27632 dihydrochloride (Tocris Bioscience, cat. 1254), and 50 ng/mL human EGF recombinant protein (Thermo Fisher Scientific, cat. PHG0311). The 485176-168-R4-J1-PDC line was cultured in Panc media, which includes all 6C/Colon 1B media components plus 100 ng/mL human FGF-10 (Thermo Fisher Scientific, cat. 100-26), 500 nM SB-431542 (Selleckchem, cat. S1067), and gastrin (Tocris, cat. 3006).
[…]

[1] = second compound 0.0316 µM, first compound 0.0316 µM
[2] = second compound 0.0316 µM, first compound 0.1 µM
[3] = second compound 0.0316 µM, first compound 0.316 µM
[4] = second compound 0.0316 µM, first compound 1 µM
[5] = second compound 0.0316 µM, first compound 3.16 µM
[6] = second compound 0.0316 µM, first compound 10 µM
[7] = second compound 0.1 µM, first compound 0.0316 µM
[8] = second compound 0.1 µM, first compound 0.1 µM
[9] = second compound 0.1 µM, first compound 0.316 µM
[10] = second compound 0.1 µM, first compound 1 µM
[11] = second compound 0.1 µM, first compound 3.16 µM
[12] = second compound 0.1 µM, first compound 10 µM
[13] = second compound 0.316 µM, first compound 0.0316 µM
[14] = second compound 0.316 µM, first compound 0.1 µM
[15] = second compound 0.316 µM, first compound 0.316 µM
[16] = second compound 0.316 µM, first compound 1 µM
[17] = second compound 0.316 µM, first compound 3.16 µM
[18] = second compound 0.316 µM, first compound 10 µM
[19] = second compound 1 µM, first compound 0.0316 µM
[20] = second compound 1 µM, first compound 0.1 µM
[21] = second compound 1 µM, first compound 0.316 µM
[22] = second compound 1 µM, first compound 1 µM
[23] = second compound 1 µM, first compound 3.16 µM
[24] = second compound 1 µM, first compound 10 µM
[25] = second compound 3.16 µM, first compound 0.0316 µM
[26] = second compound 3.16 µM, first compound 0.1 µM
[27] = second compound 3.16 µM, first compound 0.316 µM
[28] = second compound 3.16 µM, first compound 1 µM
[29] = second compound 3.16 µM, first compound 3.16 µM
[30] = second compound 3.16 µM, first compound 10 µM
[31] = second compound 10 µM, first compound 0.0316 µM
[32] = second compound 10 µM, first compound 0.1 µM
[33] = second compound 10 µM, first compound 0.316 µM
[34] = second compound 10 µM, first compound 1 µM
[35] = second compound 10 µM, first compound 3.16 µM
[36] = second compound 10 µM, first compound 10 µM
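Also: spheroids exposed to agents for one week before reading.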
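For viability, T/C in this document: 100% = DMSO vehicle control viability.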

Nc1ccn(C2OC(CO)C(O)C2(F)F)c(=O)n1 (centres undefined) + Cc1cnc(CNC(=O)c2c(=O)c3ccc(N4CCCN(C)CC4)nc3n3c2sc2ccccc23)cn1 showed an IC50 (second compound 0.0316 µM) of 159 nM, an IC50 (second compound 0.1 µM) of 85.7 nM and an IC50 (second compound 0.316 µM) of less than 31.6 nM. The IC50 (second compound 1 µM) was less than 31.6 nM, the IC50 (second compound 3.16 µM) was less than 31.6 nM and the IC50 (second compound 10 µM) was less than 31.6 nM. For the same compound, the viability, T/C [1] was 67.4%, the viability, T/C [2] was 63.6% and the viability, T/C [3] was 30.6%. For the same compound, the viability, T/C [4] was 12.9%, the viability, T/C [5] was 8.38% and the viability, T/C [6] was 8.43%. For the same compound, the viability, T/C [7] was 57.4%, the viability, T/C [8] was 51.2% and the viability, T/C [9] was 29%. For the same compound, the viability, T/C [10] was 20.9%, the viability, T/C [11] was 7.8% and the viability, T/C [12] was 7.55%. For the same compound, the viability, T/C [13] was 36%, the viability, T/C [14] was 27.7% and the viability, T/C [15] was 20.9%. The viability, T/C [16] was 12.8%, the viability, T/C [17] was 9.07% and the viability, T/C [18] was 7.49%. For the same compound, the viability, T/C [19] was 20.2%, the viability, T/C [20] was 19.9% and the viability, T/C [21] was 15.2%. For the same compound, the viability, T/C [22] was 9.52%, the viability, T/C [23] was 9.75% and the viability, T/C [24] was 8.51%. For the same compound, the viability, T/C [25] was 16%, the viability, T/C [26] was 17.8% and the viability, T/C [27] was 15.9%. It also gave a viability, T/C [28] of 8.29%, a viability, T/C [29] of 4.92% and a viability, T/C [30] of 2.37%. For the same compound, the viability, T/C [31] was 17%, the viability, T/C [32] was 15.7% and the viability, T/C [33] was 15.1%. For the same compound, the viability, T/C [34] was 6.25%, the viability, T/C [35] was 4.12% and the viability, T/C [36] was 5.49%.
In the case of CC1COCCN1c1cc(C2(S(C)(=N)=O)CC2)nc(-c2ccnc3[nH]ccc23)n1 (centres undefined) + CN(C)c1ccc(Nc2c3ccc(NC(=O)CCN4CCCC4)cc3nc3cc(NC(=O)CCN4CCCC4)ccc23)cc1, the IC50 (second compound 0.0316 µM) is reported as 879 nM, the IC50 (second compound 0.1 µM) is reported as 832 nM and the IC50 (second compound 0.316 µM) is reported as 1020 nM. It also gave an IC50 (second compound 1 µM) of 850 nM, an IC50 (second compound 3.16 µM) of 1330 nM and an IC50 (second compound 10 µM) of 1380 nM. It also gave a viability, T/C [1] of 99.7%, a viability, T/C [2] of 93.1% and a viability, T/C [3] of 98%. The viability, T/C [4] was 44.1%, the viability, T/C [5] was 16.2% and the viability, T/C [6] was 17.2%. The viability, T/C [7] was 104%, the viability, T/C [8] was 112% and the viability, T/C [9] was 117%. The viability, T/C [10] was 38.4%, the viability, T/C [11] was 17.5% and the viability, T/C [12] was 16.8%. The viability, T/C [13] was 97.1%, the viability, T/C [14] was 99.2% and the viability, T/C [15] was 99%. It also gave a viability, T/C [16] of 50.6%, a viability, T/C [17] of 12.9% and a viability, T/C [18] of 13.7%. For the same compound, the viability, T/C [19] was 99.3%, the viability, T/C [20] was 93.8% and the viability, T/C [21] was 91.5%. It also gave a viability, T/C [22] of 43.3%, a viability, T/C [23] of 14.8% and a viability, T/C [24] of 14.5%. It also gave a viability, T/C [25] of 86.4%, a viability, T/C [26] of 78.4% and a viability, T/C [27] of 89.2%. It also gave a viability, T/C [28] of 61.5%, a viability, T/C [29] of 15.8% and a viability, T/C [30] of 14.8%. The viability, T/C [31] was 61%, the viability, T/C [32] was 76.7% and the viability, T/C [33] was 69.1%. The viability, T/C [34] was 58.9%, the viability, T/C [35] was 26.9% and the viability, T/C [36] was 20.5%.
